Data as given in US20180289721A1, “FULVESTRANT COMPOSITIONS” (THEMIS MEDICARE LIMITED, priority 2015, published 2018).
In brackets after ≈: the same amount, converted by molar mass. Like-named read-outs stand apart in the source and are kept apart here.

Key:
[1] = Solubility studies of fulvestrant in solvents, co-solvents, oils and release rate modifiers; assay type: physicochemical; details: for solubility: read-out: Fulvestrant solubility achieved
Procedure: Solubility studies of fulvestrant were performed using various combinations of solvent, co-solvents, oils and release rate modifiers. The resultant data are shown herein below Table 1.

[2] = diethylene glycol monoethyl ether as the sole solvent, reported by Patel; cited from earlier work

Fulvestrant solubility achieved ([1]; Benzyl alcohol (4 v/v %):Diethylene glycol monoethyl ether (q.s. to 1.7 mL)): 300 mg/1.7 mL | Fulvestrant solubility achieved ([1]; Benzyl alcohol (5 v/v %):Diethylene glycol monoethyl ether (q.s. to 3.3 mL)): 500 mg/3.3 mL | solubility ([1]; N-methyl pyrrolidone, organic solvent or mixture, N-methyl Pyrolidone): 250 mg/mL | solubility ([1]; Polyethylene Glycol 400, organic solvent or mixture, Polyethylene Glycol 400): 11.1 mg/mL | solubility ([1]; TCLS-101 (DMI), organic solvent or mixture, TCLS-101 (DMI)): 30.8 mg/mL | solubility ([1]; oil or lipid, Benzyl alcohol (4 v/v %):Benzyl benzoate (10 w/v %):Castor oil (50 v/v %):Diethylene glycol monoethyl ether (q.s. to 1 mL)): 56 mg/mL | solubility ([1]; oil or lipid, Benzyl alcohol (4 v/v %):Diethylene glycol monoethyl ether (31 v/v %):Castor oil (q.s. to 1 mL)): 30 mg/mL | solubility ([1]; oil or lipid, Benzyl alcohol (4 v/v %):Diethylene glycol monoethyl ether (46 v/v %):Castor oil (q.s. to 1 mL)): 125 mg/mL | solubility ([1]; oil or lipid, Benzyl alcohol (10 v/v %):Castor oil (50 v/v %):Diethylene glycol monoethyl ether (q.s. to 1 mL)): 151 mg/mL | solubility ([1]; organic solvent or mixture, Benzyl alcohol (2 v/v %):Diethylene glycol monoethyl ether (q.s. to 1 mL)): 200 mg/mL | solubility ([1]; organic solvent or mixture, Benzyl alcohol (2 v/v %):MCT oil (1 v/v %):Diethylene glycol monoethyl ether (q.s. to 1 mL)): 200 mg/mL | solubility ([1]; organic solvent or mixture, Benzyl alcohol (4 v/v %):Diethylene glycol monoethyl ether (q.s. to 1.7 mL)): 176 mg/mL | solubility ([1]; organic solvent or mixture, Benzyl alcohol (5 v/v %):Diethylene glycol monoethyl ether (q.s. to 3.3 mL)): 151 mg/mL
SMILES: C[C@]12CC[C@@H]3c4ccc(O)cc4C[C@@H](CCCCCCCCC[S+]([O-])CCCC(F)(F)C(F)(F)F)[C@H]3[C@@H]1CC[C@@H]2O (stereo partly drawn) [Fulvestrant, 7-alpha-[9-[(4,4,5,5,5-pentafluoropentyl)sulfinyl]nonyl]estra-1,3,5(10)-triene-3,17-beta-diol]
solubility [2]: 58.80 mg/mL (≈ 96.9 mM)
